Drawing on publication PMC9632241 (Antiviral Research, 2022), this text covers IC50 for 1 compound.

Molecules are shown by their SMILES.

This experiment has as its target SARS-CoV-1 M^pro (Severe acute respiratory syndrome-related coronavirus, UniProt P0C6U8). In words: biochemical.

Compound `CCOC(=O)/C=C/[C@H](C[C@@H]1CCNC1=O)NC(=O)[C@@H](CC(=O)[C@@H](NC(=O)c1cc(C)on1)C(C)C)Cc1ccc(F)cc1` [rupintrivir, 4-{2-(4-fluoro-benzyl)-6-methyl-5-[(5-methyl-isoxazole-3-carbonil)-amino]-4-oxo-heptanoylamino}-5-(2-oxo-pyrrolidin-3-yl)-pentanoicacidethylester] displayed an IC50 of 66 µM.
